Results: patent US10183009B2, “Therapeutic compounds and uses thereof” (GENENTECH, INC., priority 2014, dated 2019)

Tests used:
[1] = target: BRD4(BD1) (Homo sapiens (Human), UniProt O60885); assay: BRD4 AlphaLisa Binding Assay
[2] = target: BRD9 (Homo sapiens (Human), UniProt Q9H8M2); assay: BRD9 AlphaLisa Binding Assay
Procedure: After 20 minutes incubation at room temperature AlphaLisa Streptavidin Acceptor Beads (Perkin-A[…]) and AlphaLisa Nickel donor beads (Perkin AS 10 ID) were added to a final concentration of 15 ug/mL each.

BRD9, sequence (Q9H8M2 134-239 limits assumed): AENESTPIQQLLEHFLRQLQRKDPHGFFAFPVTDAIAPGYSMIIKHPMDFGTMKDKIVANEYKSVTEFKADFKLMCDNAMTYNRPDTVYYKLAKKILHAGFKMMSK

Row | Compound | IC50 [1] [µM] | IC50 [2] [µM]
1 | CC(C)Cn1cc(-c2cccc(C(=O)N(C)C)c2)c2cc[nH]c2c1=O [Example 16, 3-(6-isobutyl-7-oxo-1H-pyrrolo[2,3-c]pyridin-4-yl)-N,N-dimethyl-benzamide] | 8 | –
2 | CCCCCn1cc(-c2cccc(C(=O)N(C)C)c2)c2cc[nH]c2c1=O [Example 13, N,N-dimethyl-3-(7-oxo-6-pentyl-1H-pyrrolo[2,3-c]pyridin-4-yl)benzamide] | 4.5 | –
3 | CN(C)C(=O)c1cccc(-c2cn(CC3CCCC3)c(=O)c3[nH]ccc23)c1 [Example 5, 3-[6-(cyclopentylmethyl)-7-oxo-1H-pyrrolo[2,3-c]pyridin-4-yl]-N,N-dimethyl-benzamide] | 6.4 | –
4 | C/C=C/Cn1cc(-c2cc(C(N)=O)ccc2F)c2cc[nH]c2c1=O [Example 40, 3-[6-[(E)-but-2-enyl]-7-oxo-1H-pyrrolo[2,3-c]pyridin-4-yl]-4-fluoro-benzamide] | 1.8 | –
5 | CN(C)C(=O)c1cccc(-c2cn(CC3CCCCC3)c(=O)c3[nH]ccc23)c1 [Example 9, 3-[6-(cyclohexylmethyl)-7-oxo-1H-pyrrolo[2,3-c]pyridin-4-yl]-N,N-dimethyl-benzamide] | 15 | –
6 | CC/C=C/Cn1cc(-c2cccc(C(=O)N(C)C)c2)c2cc[nH]c2c1=O [Example 7, N,N-dimethyl-3-[7-oxo-6-[(E)-pent-2-enyl]-1H-pyrrolo[2,3-c]pyridin-4-yl]benzamide] | 2.7 | –
7 | CCCCn1cc(-c2cccc(C(=O)N(C)C)c2)c2cc(C)[nH]c2c1=O [Example 86, 3-(6-butyl-2-methyl-7-oxo-1H-pyrrolo[2,3-c]pyridin-4-yl)-N,N-dimethyl-benzamide] | 2.3 | –
8 | CN(C)C(=O)c1cccc(-c2cn(CCC3CC3)c(=O)c3[nH]ccc23)c1 [Example 4, 3-[6-(2-cyclopropylethyl)-7-oxo-1H-pyrrolo[2,3-c]pyridin-4-yl]-N,N-dimethyl-benzamide] | 2.1 | –
9 | C/C=C/Cn1cc(-c2ccc3c(c2)NC(C)CC(=O)N3)c2cc[nH]c2c1=O (centres unmarked) [Example 84, 7-[6-[(E)-but-2-enyl]-7-oxo-1H-pyrrolo[2,3-c]pyridin-4-yl]-4-methyl-1,3,4,5-tetrahydro-1,5-benzodiazepin-2-one] | 1.9 | –
10 | C/C=C/Cn1cc(-c2ccc(C(C)(C)C)cc2)c2cc[nH]c2c1=O [Example 23, 6-[(E)-but-2-enyl]-4-(4-tert-butylphenyl)-1H-pyrrolo[2,3-c]pyridin-7-one] | 2.1 | –
11 | CN(C)C(=O)c1cccc(-c2cn(CC3CCC3)c(=O)c3[nH]ccc23)c1 [Example 11, 3-[6-(cyclobutylmethyl)-7-oxo-1H-pyrrolo[2,3-c]pyridin-4-yl]-N,N-dimethyl-benzamide] | 3.6 | –
12 | C/C=C/Cn1cc(-c2cc(C(=O)NCCC)ccc2OC)c2cc[nH]c2c1=O [Example 74, 3-[6-[(E)-but-2-enyl]-7-oxo-1H-pyrrolo[2,3-c]pyridin-4-yl]-4-methoxy-N-propyl-benzamide] | – | 0.027
13 | C/C=C/Cn1cc(-c2ccc(C(=O)N3CCN(C)CC3)c(Cl)c2)c2cc(C)[nH]c2c1=O [Example 99, 6-[(E)-but-2-enyl]-4-[3-chloro-4-(4-methylpiperazine-1-carbonyl)phenyl]-2-methyl-1H-pyrrolo[2,3-c]pyridin-7-one] | – | 0.009
14 | CCCCn1cc(-c2ccc(C(C)(C)O)cc2OC)c2cc[nH]c2c1=O [Example 80, 6-butyl-4-[4-(1-hydroxy-1-methyl-ethyl)-2-methoxy-phenyl]-1H-pyrrolo[2,3-c]pyridin-7-one] | – | 0.073
15 | C/C=C/Cn1cc(-c2cnc(C(=O)N3CCOCC3)nc2)c2cc(C)[nH]c2c1=O [Example 105, 6-[(E)-but-2-enyl]-2-methyl-4-[2-(morpholine-4-carbonyl)pyrimidin-5-yl]-1H-pyrrolo[2,3-c]pyridin-7-one] | – | 0.083
16 | C/C=C/Cn1cc(-c2ccc(C(=O)N3CCC(C(N)=O)CC3)c(Cl)c2)c2cc(C)[nH]c2c1=O [Example 113, (E)-1-(4-(6-(but-2-en-1-yl)-2-methyl-7-oxo-6,7-dihydro-1H-pyrrolo[2,3-c]pyridin-4-yl)-2-chlorobenzoyl)piperidine-4-carboxamide] | – | 0.003
17 | C/C=C/Cn1cc(-c2cccc(C(=O)N(C)C)c2F)c2cc[nH]c2c1=O [Example 42, 3-[6-[(E)-but-2-enyl]-7-oxo-1H-pyrrolo[2,3-c]pyridin-4-yl]-fluoro-N,N-dimethyl-benzamide] | – | 0.082
18 | C/C=C/Cn1cc(-c2ccc(C(=O)N3CCCC3)cc2)c2cc(C)[nH]c2c1=O [Example 91, 6-[(E)-but-2-enyl]-2-methyl-4-[4-(pyrrolidine-1-carbonyl)phenyl]-1H-pyrrolo[2,3-c]pyridin-7-one] | – | 0.013
19 | C/C=C/Cn1cc(-c2ccc(C(=O)NC)cc2)c2cc[nH]c2c1=O [Example 24, 4-[6-[(E)-but-2-enyl]-7-oxo-1H-pyrrolo[2,3-c]pyridin-4-yl]-N-methyl-benzamide] | – | 0.029

Now from value to compound:

Row | IC50 [1] [µM] | IC50 [2] [µM] | Compound
20 | 1.3 | – | C/C=C/Cn1cc(-c2cc(C(=O)NC3CCC3)ccc2OC)c2cc[nH]c2c1=O [Example 75, 3-[6-[(E)-but-2-enyl]-7-oxo-1H-pyrrolo[2,3-c]pyridin-4-yl]-N-cyclobutyl-4-methoxy-benzamide]
21 | 1.2 | – | C/C=C/Cn1cc(-c2cc(C(=O)NCC3CC3)ccc2OC)c2cc[nH]c2c1=O [Example 76, 3-[6-[(E)-but-2-enyl]-7-oxo-1H-pyrrolo[2,3-c]pyridin-4-yl]-N-(cyclopropylmethyl)-4-methoxy-benzamide]
22 | 0.89 | – | C/C=C/Cn1cc(-c2ccc(C(N)=O)c(F)c2)c2cc[nH]c2c1=O [Example 20, 4-[6-[(E)-but-2-enyl]-7-oxo-1H-pyrrolo[2,3-c]pyridin-4-yl]-2-fluoro-benzamide]
23 | 0.98 | – | C/C=C/Cn1cc(-c2cc(C(=O)NC3CC3)ccc2OC)c2cc[nH]c2c1=O [Example 63, 3-[6-[(E)-but-2-enyl]-7-oxo-1H-pyrrolo[2,3-c]pyridin-4-yl]-N-cyclopropyl-4-methoxy-benzamide]
24 | 1.6 | – | C/C=C/Cn1cc(-c2ccc(C(C)C)cc2)c2cc[nH]c2c1=O [Example 31, 6-[(E)-but-2-enyl]-4-(4-isopropylphenyl)-1H-pyrrolo[2,3-c]pyridin-7-one]
25 | 0.51 | – | C/C=C/Cn1cc(-c2ccc(C(=O)NC3CC3)cc2)c2cc[nH]c2c1=O [Example 28, 4-[6-[(E)-but-2-enyl]-7-oxo-1H-pyrrolo[2,3-c]pyridin-4-yl]-N-cyclopropyl-benzamide]
26 | 0.32 | – | C/C=C/Cn1cc(-c2cc(C(=O)NCC(F)F)ccc2OC)c2cc[nH]c2c1=O [Example 69, 3-[6-[(E)-but-2-enyl]-7-oxo-1H-pyrrolo[2,3-c]pyridin-4-yl]-N-(2,2-difluoroethyl)-4-methoxy-benzamide]
27 | 1.2 | – | C/C=C/Cn1cc(-c2cccc(C(N)=O)c2F)c2cc[nH]c2c1=O [Example 39, 3-[6-[(E)-but-2-enyl]-7-oxo-1H-pyrrolo[2,3-c]pyridin-4-yl]-2-fluoro-benzamide]
28 | 1.6 | – | C/C=C/Cn1cc(-c2cc(C(=O)NC3CCOC3)ccc2OC)c2cc[nH]c2c1=O (centres unmarked) [Example 65, 3-[6-[(E)-but-2-enyl]-7-oxo-1H-pyrrolo[2,3-c]pyridin-4-yl]-4-methoxy-N-tetrahydrofuran-3-yl-benzamide]
29 | 0.83 | – | C/C=C/Cn1cc(-c2cccc(C(=O)NC3CC3)c2)c2cc[nH]c2c1=O [Example 26, 3-[6-[(E)-but-2-enyl]-7-oxo-1H-pyrrolo[2,3-c]pyridin-4-yl]-N-cyclopropyl-benzamide]
